In patent publication US20240108634A1, “COMPOSITIONS AND METHODS FOR INHIBITING YAP” (The United States Government as represented by the …, priority 2021, published 2024):

What was measured:
LN229 and GBM39 cells [1] = assay: Soft agar colony formation (anchorage-independent growth); assay type: cell-based, human; settings: LN229 and GBM39, 14 days
From the text: (§1) Cells were layered in soft agar to evaluate anchorage-independent growth in the presence of the indicated concentrations of inhibitor and colonies counted following 14 days of growth. Representative crystal violet stained images are shown below. Data represent mean+S.D. of three independent experiments. […] Cells were placed in Boyden chambers and allowed to migrate towards BSA (white bars), vitronectin (light yellow bars), or fibronectin (dark yellow bars) (*, P<0.05; n=3). […] Representative crystal violet stained images are shown (200×). Data represent mean+S.D. of three independent experiments. […] Graphical data shown below represent mean+S.D. (late apoptosis; annexin V-positive, PI-positive) of three independent experiments.
(§2) Cell proliferation, clonogenic, migration, invasion and apoptosis assays. Cell proliferation was determined via Cell Titer-Glo® luminescent cell assays (Promega). Clonogenic assays were done by plating a total of 1,000 cells per well in 24-well plates in a total volume of 400 μL using a two-layered soft agar system as previously described (Masri J, et al. (2007) Cancer Res 67: 11712-11720). Cell migration assays were conducted using precoated modified Boyden chambers as previously described (Benavides-Serrato A, et al. (2017) PLoS One 12: e0176599). […]

LN229 and GBM39 cells [2] = assay: Matrigel invasion assay; assay type: cell-based, human; settings: Matrigel-coated membranes
From the text: as §1, §2

LN229 xenografts = assay: Subcutaneous LN229 xenografts in SCID mice; assay type: in vivo
From the text: Protein levels were quantified by Western analyses (inset; representative immunoblots of YAP and actin levels from tumors from the indicated tumor treatment groups), and normalized to actin levels of harvested tumors from mice with the corresponding treatments as indicated and described in Materials and Methods. […] Scale bar, 20 μm. […] Data are expressed as the number of positive apoptotic bodies (brown, indicated by arrows) divided by high power field (hpf; 10-12 hpf/tumor). Values are means+S.D., *, P<0.05. Scale bar, 20 μm.
(§3) Animal studies. Xenografts of LN229 cells were performed in 4-6-week-old female C.B.-17-scid (Taconic) mice as previously described (Holmes B, et al. (2016) J Biol Chem 291: 14146-14159). Tumors were harvested at autopsy for immunoblot analysis. Sections of paraffin-embedded tumors on slides were processed for immunohistochemistry as previously described (Benavides-Serrato A, et al. (2017) PLoS One 12: e0176599). For GEMM studies, double transgenic GFAP-EGFRvIII; GFAP-Cre/Rictor^loxP/loxP mice as previously described were used (Bashir T, et al. (2012) PLoS One 7: e47741). Determinations of blood plasma and brain concentrations of NSC682769 following IV administration were performed in C57/BL6 mice.
NSC682769 inhibits GBM tumor growth in xenografted mice. To examine the effects of NSC682769 in vivo, the ability of the compound to inhibit the growth of LN229 xenografted tumors implanted subcutaneously in SCID mice was tested. Following implantation, when tumors reached ˜200 mm^3, mice were randomized into treatment groups receiving vehicle, 5 mg/kg/d and 20 mg/kg/d of NSC682769. […] The relative expression level of YAP was reduced in harvested tumors from NSC682769 treated animals (5 mg/kg; 20 mg/kg) as compared to vehicle treated animals consistent with the observed effects of the inhibitor in vitro (FIG. 5D; see also FIG. 3). Expression of the YAP-dependent genes CTGF and Cyr61 was reduced in inhibitor treated groups relative to vehicle (FIG. 5E).

[3] = test system: GFAP-EGFRvIII×GFAP-Cre+/Rictor glioma GEMM; assay: Survival of GFAP-EGFRvIII; GFAP-Cre/Rictor transgenic glioma mice; assay type: in vivo
Method: FIGS. 9A-B show GEMM survival and brain/blood plasma concentrations following treatment with NSC682769. […] C57/BL6 mice were administered NSC682769 IV and mean brain and plasma concentrations were determined via HPLC analyses. (n=5).
as §3
NSC682769 increases survival of a glioma GEMM and penetrates the blood-brain barrier. NSC682769 was evaluated in double transgenic GFAP-EGFRvIII; GFAP-Cre/Rictor^loxP/loxP mice which overexpress both the mutant constitutively active EGFRvIII allele and the mTORC2 scaffolding component Rictor. […] To assess therapeutic activity, the effect of twice-weekly 5 or 20 mg/kg NSC682769 treatments was measured on survival.

## COc1ccc(-c2cc(-c3ccccc3)nc3c2CC(=O)Nc2ccccc2-3)cc1OC [NSC682769]
LN229 and GBM39 cells [1]
  Clonogenic growth in soft agar: inhibited
LN229 and GBM39 cells [2]
  Cell invasiveness: reduced the number of cells able to traverse Matrigel-coated membranes
LN229 xenografts; 5 mg/kg/d
  Tumor growth delay: 11 days
  Tumor growth inhibition at end of dosing period: 66%
LN229 xenografts; 5 mg/kg, 20 mg/kg versus vehicle
  Relative expression level of YAP in harvested tumors: reduced
LN229 xenografts; 20 mg/kg/d
  Tumor growth delay: 16 days
  Tumor growth inhibition at end of dosing period: 83%
LN229 xenografts; 5 and 20 mg/kg/d
  Overall survival relative to vehicle: markedly extended
LN229 xenografts; both dosing regimens versus vehicle
  Harvested tumor weights: significant reduction
LN229 xenografts; both dosing regimens, day 12
  Apoptosis by TUNEL staining of tumors: enhancement of apoptotic death
LN229 xenografts; day 12 after start of treatment
  Ki-67 staining of harvested tumors: reduction
LN229 xenografts; treated groups versus vehicle
  Expression of CTGF and Cyr61 in harvested xenografts: reduced
[3]; 5 mg/kg twice weekly
  Mice surviving to 20 weeks: 60%
[3]; 20 mg/kg twice weekly
  Mice surviving at 20 weeks: more than 75%
